According to US7323318B2, “Assay for distinguishing live and dead cells” (priority 2004, dated 2008):

Columns and labels:
[1] = tested on: TGN (trans-Golgi network); conditions: FIG. 6C; increasing concentrations
Text: As with FIGS. 6A and 6B, the live-dead discrimination in FIG. 6C was made using mean DM1-α intensity (per cell).

[2] = tested on: live cells and dead cells; experiment: Total cell area in live and dead cells (pixel count within segmented boundary); type: cell-based; conditions: FIG. 6B
Method: The area was determined from a pixel count within the boundary determined by segmentation. […] A simple consideration of the average cell area for all cells (including live cells and dead cells) would likely mask the fact that the higher concentrations of the drug cause dead cells to become progressively larger. The effect of the live cells masks, somewhat, the effect on the dead cells. […] Note that the average area of the live and dead cells together is shown as lines 611 in FIG. 6B. Note also that, as with the plot in FIG. 6A, the live cells were discriminated from dead cells using the mean DM1-α intensity of each cell.

population of cells = experiment: Image-based live-dead cell assay using mean tubulin marker (DM1-α) intensity per cell
Text: FIG. 1 presents two images of cells: a left image of a control population of cells treated with DMSO, and a right image of a test population of cells treated with the compound carbonyl cyanide 3-chlorophenylhydrazone (herein CCCP), a poison which acts on the cellular respiratory pathway. After treatment with DMSO or CCCP, the cells were fixed and stained with multiple markers. Three of these markers are shown in the image: red indicates DNA, blue indicates tubulin, and green indicates the trans-Golgi network. […] Note that individual cells are identified (whether alive or dead) by a small red area in the central region. This red area is associated with DNA in the cell nucleus. […] This is not necessarily an indication that the dead cells have increased levels of Golgi.
FIG. 2 presents a flowchart depicting one method for producing a model that can be used to determine whether an individual cell is live or dead. As shown in a block 203, the method begins by preparing the cell populations that are to be used for imaging. In certain embodiments, a sandwich culture is employed. In this preliminary operation, some cell populations are treated as controls (assumed to have a high fraction of cells that are alive) and other cell populations are treated as test samples (assumed to have a significant fraction of cells that are dead). Upon completion of treatment, cells are fixed and stained with appropriate markers. The test cells will all have been treated with a compound or other stimulus known to kill a significant percentage of the cells in a given population. Together, the control and test cell populations provide relatively large numbers of live and dead cells. The size of these populations should be large enough to provide a training set sufficient to generate a model that can reliably distinguish live cells from dead cells.
An exemplary two-step segmentation process is illustrated in FIGS. 3A and 3B. FIG. 3A presents the result of the first step. As shown there, two images (the left one for a control population treated with DMSO and the right one for a test population treated with 2.5 μM CCCP) show nuclei circled in the interiors of individual cells. Cellular DNA was stained with Hoechst […], which emits fluorescence at a wavelength selectively collected in the FIG. 3A image to permit identification of the individual nuclei. Each such nucleus is presumed to belong to a separate cell.
FIG. 3B presents the results of the second step of the cell segmentation procedure. As shown, the cell populations of FIG. 3A are again presented, but this time at the Alexa 647 channel (i.e., the bright regions in the image locate the source of radiation emitted at the wavelength of Alexa 647). […] The cell boundaries so identified are circled within the images. Each cell boundary defines a collection of pixels that are deemed to belong to a particular cell. For image processing those pixels are used extracting information about the particular cell in question.
After the boundaries of each cell have been identified, the appropriate live-dead indicator feature can be extracted on a cell-by-cell basis. See block 209. As indicated above, the intensity of a marker for tubulin (an indicator of local tubulin concentration within the cell) can be identified for each pixel in a given cell. Each cell will be characterized on the basis of its level of tubulin, whether based on an average value over all pixels in the cell, a maximum or minimum value within the cell, or some other indicator of tubulin quantity. In a preferred embodiment, the mean tubulin marker intensity is calculated over the pixels in a cell and the resulting value is employed as the live-dead indicator feature.
Additional images are presented in FIG. 3C, highlighting the marker DM1-α for tubulin. […] Note that live and dead cells can be usually distinguished by visual inspection. […]

`Nc1c2c(nc3ccccc13)CCCC2` [tacrine] was tested, and the “Golgi (TGN) marker intensity signal in dead cells” value [1] was “relatively minimal affect” and the “mean Golgi (TGN) marker intensity signal in live cells” value [1] was “dramatically increase”.
In the case of `O=C(O)Cc1ccccc1Nc1c(Cl)cccc1Cl` [diclofenac], the “total area of the live cells” value ([2]; beginning at approximately the same concentration (arbitrary 100)) is reported as “gradually decreased” and the “area of the dead cells” value ([2]; from the arbitrary concentration of 100 in the plot) is reported as “begins to increase rather dramatically”.
`N#CC(C#N)=NNc1cccc(Cl)c1` [CCCP, carbonyl cyanide 3-chlorophenylhydrazone] was tested, and the “number of cells with significant tubulin concentration versus DMSO control” value (population of cells; FIG. 1, fixed and stained cells, tubulin marker (blue)) was “far fewer cells with significant tubulin concentration”, the “percentage of dead cells versus DMSO control population” value (population of cells; FIG. 3C, 2.5 μM CCCP, DM1-α tubulin channel) was “far higher percentage of dead cells” and the “mean tubulin marker intensity per cell (histogram) versus control cells” value (population of cells; FIG. 4B, 0.625 μM to 5 μM CCCP for 24 hours, test cells pooled with control cells) was “a relatively large fraction of the cells have a mean tubulin marker intensity well below that associated with the control cells”. The “concentration at which the number of live cells begins to decrease” value (population of cells; FIG. 6A, normalized concentration, decrease at roughly the same rate as the dead cell increase) was “about 0.5 μM”, the “concentration at which the number of dead cells begins to increase dramatically” value (population of cells; FIG. 6A, normalized concentration, live/dead discriminated by mean DM1-α intensity, samples of around 800 cells) was “about 0.5 μM” and the “total number of cells (number of objects, DNA spots) across concentrations” value (population of cells; FIG. 6A, three samples of around 800 cells each) was “remain approximately constant”.
